Converted amounts (≈) assume the structure as drawn.
Experiments:
Typhlodromus pyri = test: LR50; higher = less toxic; conditions: acute; mortality
Lepomis macrochirus = conditions: acute; duration: 96 hours; oral; feed; mortality
Canidae = conditions: oral, Dog Other
Landoltia sp. = conditions: chronic/long-term; duration: 14 days; frond number
Neomysis kadiakensis = conditions: acute; duration: 96 hours; oral; feed; mortality
Pimephales promelas = conditions: chronic/long-term; duration: 35 days; other
Colinus virginianus = conditions: for LD50: acute, oral, mortality
Anas platyrhynchos = conditions: acute; oral; unspecified; mortality
Daphnia magna = conditions: chronic/long-term; duration: 21 days; reproduction
Apis mellifera = conditions: acute; oral; unspecified; mortality
Oncorhynchus mykiss = conditions: acute; duration: 96 hours; mortality

In the case of `Cc1cc(C)nc(NC(=O)NS(=O)(=O)c2ccccc2C(=O)OC2COC2)n1` [Oxasulfuron], the LR50 (Typhlodromus pyri) is reported as 3.23 g/ha, the LC50 (Lepomis macrochirus) is reported as greater than 111 µg/mL and the NOAEL (Canidae; chronic, duration: 1 years, neurology) is reported as 1.3 mg/kg-day. It also gave an NOAEL (Canidae; subchronic, duration: 90 days, neurology) of 1.3 mg/kg-day, an NOEC (Landoltia sp.) of 0.0002 mg/L and an LC50 (Neomysis kadiakensis) of 82.6 µg/mL (≈ 203 µM). For the same compound, the LC50 (Tagia sp.; acute, duration: 14 days, mortality) was greater than 1000 mg/kg, the NOEC (Tagia sp.; chronic/long-term, duration: 56 days, reproduction) was 2 mg/kg and the NOEC (Pimephales promelas) was 114 mg/L. The LD50 (Rattus norvegicus; acute, oral, mortality) was greater than 5000 mg/kg-day, the NOAEL (Rattus norvegicus; chronic, duration: 2 years, histopathology: nonneoplastic) was 8.3 mg/kg-day and the LD50 (Colinus virginianus; diet) was greater than 1610 mg/kg-day. It also gave an LD50 (Colinus virginianus) greater than 2250 mg/kg-day, an NOEL (Colinus virginianus; reproduction developmental) of 6.91 mg/kg-day and an LD50 (Anas platyrhynchos) greater than 2250 mg/kg-day. It also gave an NOEC (Daphnia magna) of 14 mg/L and an LD50 (Apis mellifera) greater than 100 µg/piece.
`OC1COC1` [Oxetan-3-ol] gave an NOAEL (Canidae; chronic, duration: 16 weeks, hematological) of 50 mg/kg-day and an LC50 (Oncorhynchus mykiss) greater than 100 µg/mL.

From EPA's ToxValDB 9.5 (doi:10.2903/j.efsa.2017.4722)
